Measurements from patent US20240238380A1, “COMPOSITION FOR COMBINATION THERAPY COMPRISING GROWTH DIFFERENTIATION FACTOR-15 VARIANT AND GLUCAGON-LIKE PEPTIDE-1 RECEPTOR AGONIST” (YUHAN CORPORATION, priority 2021, published 2024).
Marks after values point to notes of the source that are not given here.

Tests used:
Format in all cases: in vivo
[1] = Pharmacokinetics of long-acting GDF15 fusion protein (dimer) in C57BL/6N mice; conditions: 1 mg/kg subcutaneous
Description: 6-week-old male C57BL/6N mice (Orient Bio, Republic of Korea) were purchased from Hallym Lab. Animal Inc., Republic of Korea. Animals were acclimated for 7 days, and on the day of drug administration, the mice were grouped based on the average body weight of individual mice (n=3 per blood sampling time per group). Then, FM9-4+Fc_hole, FM9-6+Fc_hole, FM11-4+Fc_hole, and FM11-6+Fc_hole were subcutaneously administered at 1 mg/kg to each group, and blood samples were collected at 4, 24, 48, 72, 96, 120, 168, and 240 hours after administration. Determination of active GDF15 in serum was achieved by enzyme-linked immunosorbent assay (ELISA), and pharmacokinetic parameters of each long-acting GDF15 fusion protein (dimer) are shown in Table 3 below.

[2] = Anti-obesity effect by repeated administration alone and in combination with semaglutide in ob/ob mice (Example 5)
Description: The ob/ob mouse has a mutation in the leptin gene resulting in leptin deficiency, and are characterized by hyperglycemia, insulin resistance, overeating, and obesity. 5-week-old male ob/ob mice (Jackson Laboratory, USA) were purchased from Raon Bio (Animal Inc., Republic of Korea). The ob/ob mice were acclimatized with normal food (Teklad Certified Irradiated Global 18% Protein Rodent Diet, 2918C, Harlan Co., USA) for 4 weeks, and drug treatment was started at 9 weeks of age. On the day before drug treatment, the mice were grouped based on the body weight of individual mice and random blood glucose levels determined by sampling at the tail vein (n=6 per group). Thereafter, 1 and 10 nmol/kg of FM9-6+Fc_hole alone, 10 and 30 nmol/kg of semaglutide alone, and FM9-6+Fc_hole and semaglutide at doses of 1+10 and 10+10 nmol/kg in combination were subcutaneously administered thereto a total of 10 times every 3 days (Q3D), and body weight and food intake were measured every day or every 3 days during the experimental period (29 days). Here, DPBS (Dulbecco's phosphate-buffered saline, Gibco, USA) was administered for vehicle treatment.

[3] = Anti-obesity effect alone and in combination with semaglutide or tirzepatide in DIO mice (Example 7); conditions: for Change in body weight (%) vs. day 0, Maximum efficacy: 4 weeks
Description: Diet-induced obese (DIO) mice, obtained by feeding mice with high-fat diet, are characterized by obesity, hyperglycemia, and insulin resistance. Diet-induced obese mice (Taconic, USA) resulting from feeding C57BL/6N mice with high-fat food (60 kcal % fat, Research Diets, Cat #D12492, USA) for 8 weeks were purchased from Raon Bio (Animal Inc., Republic of Korea). The diet-induced obese mice were additionally fed with 60% high-fat food for 5 weeks after arrival, and then used in the present test. On the day before drug treatment, the mice were grouped based on the average body weight of individual mice (n=6 per group), after which 0.1 and 1 nmol/kg of FM9-6+Fc_hole alone, 10 nmol/kg of semaglutide (long-acting GLP-1 derivative, SEQ ID NO: 114) and 10 nmol/kg of tirzepatide (long-acting GLP-1/GIP derivative, SEQ ID NO: 117) alone as control drugs, FM9-6+Fc_hole and semaglutide at doses of 0.1+10 and 1+10 nmol/kg in combination, and FM9-6+Fc_hole and tirzepatide at doses of 1+10 nmol/kg in combination were subcutaneously administered thereto every 3 days (Q3D) for a total of 4 weeks. The semaglutide that was used in the test was Ozempic® (semaglutide) from Novo NorDisk, and the tirzepatide that was used was a material synthesized by MedChemExpress (HY-P1731B, USA). Here, DPBS (Dulbecco's phosphate-buffered saline, Gibco, USA) was administered for vehicle treatment, and, during the experimental period (26 days), body weight was measured every day and food intake was measured every 3 days.

## FM9-6 + Fc_hole: long-acting GDF15 fusion protein (dimer): GDF15 ΔN2, S64R, IgG1 Fc_knob/Fc_hole, linker GS(EAAAK)5; SEQ ID NOs: 103 and 47
[1]
  AUClast: 939.30872 µg·h/mL
  CL/F: 21.8 mL/day/kg
  T1/2,app: 84.28 h
  Tmax: 24 h
[1]; active GDF15 in serum by ELISA
  Cmax: 7581.92 ng/mL
[2]; 1 nmol/kg s.c. Q3D
  Change in body weight (%) vs. ob/ob control, Maximum efficacy: −21.49 (On Day 29)**** %
  Change in body weight (%) vs. ob/ob control, Efficacy on Day 29: −21.49**** %
[2]; 10 nmol/kg s.c. Q3D
  Change in body weight (%) vs. ob/ob control, Maximum efficacy: −24.87 (On Day 29)**** %
  Change in body weight (%) vs. ob/ob control, Efficacy on Day 29: −24.87 **** %
[3]; 0.1 nmol/kg s.c. Q3D
  Change in body weight (%) vs. day 0, Maximum efficacy: −6.75 (On Day 25)** %
  Change in body weight (%) vs. day 0, Efficacy on Day 26: −6.68** %
[3]; 1 nmol/kg s.c. Q3D
  Change in body weight (%) vs. day 0, Maximum efficacy: −16.33 (On Day 23)**** %
  Change in body weight (%) vs. day 0, Efficacy on Day 26: −16.29**** %
